For one assay, the target named is human chemokine receptor CXCR7 (Homo sapiens (Human), UniProt P25106). Briefly: Tango CXCR7-bla U2OS beta-arrestin recruitment assay (beta-lactamase reporter, FRET), antagonism of CXCL12/SDF1-α.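 Further: compounds preincubated 15 min before CXCL12 addition, then 22 h at 37 °C, FRET emission ratio read with CCF4-AM substrate after 2 h.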 Format: cell-based. Particulars: antagonistic effect on CXCR7; Tango CXCR7-bla U2OS cells, CXCL12/SDF1-α at its EC80. (Activated receptors often draw arrestin, which recruitment assays turn into a signal.)
human chemokine receptor CXCR7, sequence (P25106 whole entry): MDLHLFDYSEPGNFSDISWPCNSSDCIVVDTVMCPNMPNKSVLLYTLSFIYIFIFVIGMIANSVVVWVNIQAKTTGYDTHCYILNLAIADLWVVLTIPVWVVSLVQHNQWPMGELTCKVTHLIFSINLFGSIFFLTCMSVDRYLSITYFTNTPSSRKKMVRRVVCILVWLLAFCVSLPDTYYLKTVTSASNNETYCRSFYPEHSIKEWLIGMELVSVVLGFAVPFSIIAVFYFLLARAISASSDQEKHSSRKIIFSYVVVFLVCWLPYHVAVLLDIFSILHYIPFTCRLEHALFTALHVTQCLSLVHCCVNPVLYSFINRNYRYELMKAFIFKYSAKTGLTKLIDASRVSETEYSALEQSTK
In the case of `O=C(N[C@@H]1CCN(C2CCCC2)C[C@H]1C(=O)NC1(c2ncccn2)CC1)c1cc(-c2c(F)cc(F)cc2F)on1` (racemic) [Example 1.176, rac-(3R*,4R*)-1-Cyclopentyl-4-{[5-(2,4,6-trifluoro-phenyl)-isoxazole-3-carbonyl]-amino}-piperidine-3-carboxylic acid (1-pyrimidin-2-yl-cyclopropyl)-amide], the IC50 – broadly, the midpoint of a concentration-inhibition curve – came to 6 nM.
The same measure, in the same setting: then `C#CC(C)NC(=O)[C@H]1CN(CC2CC2)CC[C@@H]1NC(=O)c1cc(-c2ccc(F)cc2F)on1` (some centres unmarked) [Example 4.048], with 247 nM.
On the same count and under the same terms, then `O=C(NC1CCN(CC2CC2)CC1C(=O)N1CCCC1c1ncccn1)c1cc(-c2ccc(F)cc2F)on1` (centres unmarked) [Example 4.078], with 64 nM; and `COCC(C)(C)NC(=O)[C@@H]1CN(CC2CC2)CC[C@H]1NC(=O)c1cc(-c2c(F)cc(F)cc2F)on1` (single isomer, unassigned) [Example 1.113a, (3R*,4R*)-1-Cyclopropylmethyl-4-{[5-(2,4,6-trifluoro-phenyl)-isoxazole-3-carbonyl]-amino}-piperidine-3-carboxylic acid (2-methoxy-1,1-dimethyl-ethyl)-amide], with 561 nM.
For `O=C(N[C@H]1CCN(CC2CC2)C[C@@H]1C(=O)NC1(c2ncccn2)CC1)c1cc(-c2ccc(F)cc2F)ns1` [Example 7.014, (3S,4S)-1-Cyclopropylmethyl-4-{[3-(2,4-difluoro-phenyl)-isothiazole-5-carbonyl]-amino}-piperidine-3-carboxylic acid (1-pyrimidin-2-yl-cyclopropyl)-amide], inhibition was half-maximal at 629 nM (IC50).
Same read-out and setting: then `CN(C)C(=O)[C@@H]1CN(C2CCCC2)CC[C@H]1NC(=O)c1cc(-c2ccc(F)cc2F)on1` [Example 2.019], with 126 nM; and `Cc1nc(C(C)(C)NC(=O)[C@H]2CN(C3CCCC3)CC[C@@H]2NC(=O)c2cc(-c3ccc(F)cc3F)on2)no1` [Example 4.035], with 56 nM; and `O=C(N[C@H]1CCN(CC2CC2)C[C@@H]1C(=O)NC1(c2ncccn2)CC1)c1cn(-c2c(F)cc(F)cc2F)nn1` [Example 7.012, (3S,4S)-1-Cyclopropylmethyl-4-{[1-(2,4,6-trifluoro-phenyl)-1H-[1,2,3]triazole-4-carbonyl]-amino}-piperidine-3-carboxylic acid (1-pyrimidin-2-yl-cyclopropyl)-amide], with 356 nM.
The same measure, in the same setting: then `COCC(C)(C)NC(=O)[C@@H]1CN(CC2CC2)CC[C@H]1NC(=O)c1cc(-c2c(F)cc(F)cc2F)on1` (racemic) [Example 1.113, rac-(3R*,4R*)-1-Cyclopropylmethyl-4-{[5-(2,4,6-trifluoro-phenyl)-isoxazole-3-carbonyl]-amino}-piperidine-3-carboxylic acid (2-methoxy-1,1-dimethyl-ethyl)-amide], with 118 nM; and `C[C@@H](NC(=O)[C@H]1CN(C2CCCC2)CC[C@@H]1NC(=O)c1cc(-c2ccc(F)cc2F)on1)c1cccnc1` [Example 4.042], with 74 nM.
Still for that read-out and setting: then `O=C(N[C@@H]1CCN(C2CCCCC2)C[C@H]1C(=O)NC1(c2ccccn2)CC1)c1noc(-c2ccc(F)cc2F)n1` [Example 3.01], with 69 nM; and `CO[C@@H]1CCC[C@@H](N2CC[C@@H](NC(=O)c3cc(-c4ccc(F)cc4F)on3)[C@H](C(=O)N(C)C)C2)C1` [Example 2.032], with 192 nM.
`COc1ccc(-c2cc(C(=O)N[C@@H]3CCN(CC4CC4)C[C@H]3C(=O)NC3(c4ncccn4)CC3)no2)c(F)c1` (racemic) [Example 1.195, rac-(3R*,4R*)-1-Cyclopropylmethyl-4-{[5-(2-fluoro-4-methoxy-phenyl)-isoxazole-3-carbonyl]-amino}-piperidine-3-carboxylic acid (1-pyrimidin-2-yl-cyclopropyl)-amide]: the concentration for half-maximal inhibition (IC50) was 759 nM.
The same measure, in the same setting: then `O=C(N[C@@H]1CCN(C2CCCCC2)C[C@H]1C(=O)NC[C@H](O)c1ccccc1)c1cc(-c2ccc(F)cc2F)on1` (relative stereo) [Example 1.072, (3R*,4R*)-1-Cyclohexyl-4-{[5-(2,4-difluoro-phenyl)-isoxazole-3-carbonyl]-amino}-piperidine-3-carboxylic acid ((R)-2-hydroxy-2-phenyl-ethyl)-amide], with 32 nM; and `CC(NC(=O)[C@@H]1CN(CC2CC2)CC[C@H]1NC(=O)c1cc(-c2ccc(F)cc2F)on1)c1ncccn1` (some centres unmarked) [Example 4.080b], with 15 nM; and `O=C(N[C@@H]1CCN(C2CCCCC2)C[C@H]1C(=O)NCc1cnco1)c1cc(-c2ccc(F)cc2F)on1` (racemic) [Example 1.035, rac-(3R*,4R*)-1-Cyclohexyl-4-{[5-(2,4-difluoro-phenyl)-isoxazole-3-carbonyl]-amino}-piperidine-3-carboxylic acid (oxazol-5-ylmethyl)-amide], with 520 nM.
In turn, `CN(C)C(=O)[C@@H]1CN(Cc2ccccc2)CC[C@H]1NC(=O)c1cc(-c2ccc(F)cc2F)on1` [Example 2.081] came in with an IC50 of 118 nM.
In turn, `CN(C)C(=O)[C@@H]1CN(C2CCCCC2)CC[C@H]1NC(=O)c1cc(-c2c(F)cc(F)cc2F)on1` (racemic) [Example 3.005, rac-(3R*,4R*)-1-Cyclohexyl-4-{[5-(2,4,6-trifluoro-phenyl)-isoxazole-3-carbonyl]-amino}-piperidine-3-carboxylic acid dimethylamide] had an IC50 of 38 nM.
On the same count and under the same terms, then `Cc1cc(CNC(=O)[C@@H]2CN(C3CCCCC3)CC[C@H]2NC(=O)c2cc(-c3ccc(F)cc3F)on2)nn1C` (racemic) [Example 1.045, rac-(3R*,4R*)-1-Cyclohexyl-4-{[5-(2,4-difluoro-phenyl)-isoxazole-3-carbonyl]-amino}-piperidine-3-carboxylic acid (1,5-dimethyl-1H-pyrazol-3-ylmethyl)-amide], with 565 nM; and `O=C(N[C@H]1CCN(CC2CC2)C[C@@H]1C(=O)NC1(c2ccccc2F)CC1)c1cc(-c2ccc(F)cc2F)on1` [Example 4.061], with 1 nM; and `CN(C)C(=O)[C@@H]1CN(C2CCC(F)(F)CC2)CC[C@H]1NC(=O)c1cc(-c2ccc(F)cc2F)on1` [Example 2.027], with 745 nM.
The same measure, in the same setting: then `O=C(N[C@@H]1CCN(CC2CC2)C[C@H]1C(=O)NC1(c2ncccn2)CC1)c1cc(-c2ccc(Cl)cc2Cl)on1` (racemic) [Example 1.189, rac-(3R*,4R*)-1-Cyclopropylmethyl-4-{[5-(2,4-dichloro-phenyl)-isoxazole-3-carbonyl]-amino}-piperidine-3-carboxylic acid (1-pyrimidin-2-yl-cyclopropyl)-amide], with 36 nM; and `CN(C)C(=O)[C@@H]1CN(C2CCCCC2)CC[C@H]1NC(=O)c1cn(-c2ccc(F)cc2F)nn1` (single isomer, unassigned) [Example 1.095a, (3R,4R)-1-Cyclohexyl-4-{[1-(2,4-difluoro-phenyl)-1H-[1,2,3]triazole-4-carbonyl]-amino}-piperidine-3-carboxylic acid dimethylamide or (3S,4S)-1-Cyclohexyl-4-{[1-(2,4-difluoro-phenyl)-1H-[1,2,3]triazole-4-carbonyl]-amino}-piperidine-3-carboxylic acid dimethylamide], with 129 nM; and `CN(C)C(=O)[C@@H]1CN(C2CC(C)(C)C2)CC[C@H]1NC(=O)c1cc(-c2ccc(F)cc2F)on1` [Example 2.031], with 558 nM.
In the case of `O=C(N[C@H]1CCN(C2CCCC2)C[C@@H]1C(=O)NC1(c2ccccn2)CC1)c1cn(-c2ccc(F)cc2F)nn1` [Example 2.092], it took 95 nM to reach half-maximal inhibition (IC50).
On the same count and under the same terms, then `CN(C)C(=O)[C@@H]1CN(CC2=CCCC2)CC[C@H]1NC(=O)c1cc(-c2ccc(F)cc2F)on1` [Example 2.036], with 165 nM.
On the same count and under the same terms, then `O=C(NC1CCN(C2CCCC2)CC1C(=O)NC1(c2cccc[n+]2[O-])CC1)c1cc(-c2ccc(F)cc2F)on1` (centres unmarked) [Example 2.062], with 23 nM; and `O=C(N[C@H]1CCN(Cc2ccc(F)cc2)C[C@@H]1C(=O)NC1(c2ncccn2)CC1)c1cc(-c2ccc(F)cc2F)on1` [Example 2.068], with 12 nM; and `C[C@@H](NC(=O)[C@@H]1CN(C2CCCCC2)CC[C@H]1NC(=O)c1cn(-c2ccc(F)cc2F)nn1)c1cnccn1` (relative stereo) [Example 1.127, (3R*,4R*)-1-Cyclohexyl-4-{[1-(2,4-difluoro-phenyl)-1H-[1,2,3]triazole-4-carbonyl]-amino}-piperidine-3-carboxylic acid ((R)-1-pyrazin-2-yl-ethyl)-amide], with 360 nM.
On the same count and under the same terms, then `CN(C)C(=O)[C@@H]1CN(CCC2CC2)CC[C@H]1NC(=O)c1cc(-c2ccc(F)cc2F)on1` [Example 2.039], with 83 nM; and `CC1(NC(=O)[C@@H]2CN(C3CCCCC3)CC[C@H]2NC(=O)c2cc(-c3ccc(F)cc3F)on2)CC1` [Example 4.018], with 343 nM.
Regarding `O=C(N[C@H]1CCN(C2CCCC2)C[C@@H]1C(=O)NC1(c2ncccn2)CC1)c1ncc(-c2ccc(F)cc2F)o1` [Example 2.098], the IC50 was 94 nM.
Still for that read-out and setting: then `C[C@@H](NC(=O)[C@@H]1CN(C2CCCC2)CC[C@H]1NC(=O)c1cn(-c2ccc(F)cc2F)nn1)C1CCC1` (relative stereo) [Example 1.135, (3R*,4R*)-1-Cyclopentyl-4-{[1-(2,4-difluoro-phenyl)-1H-[1,2,3]triazole-4-carbonyl]-amino}-piperidine-3-carboxylic acid ((R)-1-cyclobutyl-ethyl)-amide], with 592 nM; and `CN(C)C(=O)[C@@H]1CN(C2CCCCC2)CC[C@H]1NC(=O)c1cc(-c2c(F)cccc2F)on1` (racemic) [Example 3.001, rac-(3R*,4R*)-1-Cyclohexyl-4-{[5-(2,6-difluoro-phenyl)-isoxazole-3-carbonyl]-amino}-piperidine-3-carboxylic acid dimethylamide], with 965 nM.

Staying with this assay, now noted: antagonistic effect on CXCR7; Tango CXCR7-bla U2OS cells; CXCL12/SDF1-α at its EC80; geometric mean.
The molecule `O=C(N[C@H]1CCN(CC2CC2)C[C@@H]1C(=O)NC1(c2ncccn2)CC1)c1cc(-c2ccccc2)on1` [Reference Example 3, (3S,4S)-1-Cyclopropylmethyl-4-[(5-phenyl-isoxazole-3-carbonyl)-amino]-piperidine-3-carboxylic Acid (1-pyrimidin-2-yl-cyclopropyl)-amide, reference compound] gave an IC50 of 1330 nM.

The values are drawn from US11306078B2, “Piperidine CXCR7 receptor modulators” (IDORSIA PHARMACEUTICALS LTD., priority 2016, dated 2022).
